Laboratory results from patent publication US20230102379A1 (priority 2020, published 2023).
“Also recorded” adds a separate entry of the source. Like-named read-outs stand apart in the source and are kept apart here.

Columns and labels:
[1] = system: L. crescens; type: cell-based, Liberibacter crescens
[2] = system: Xylella fastidiosa; type: cell-based; conditions: for diameter of inhibition: highest dose tested (2.12 μmol)
[3] = system: Xf; conditions: cited from earlier work
[4] = system: Vibrio harveyi; conditions: cited from earlier work
[5] = system: Micrococcus luteus; conditions: cited from earlier work
[6] = system: E. coli; conditions: cited from earlier work
[7] = system: MRSA; conditions: cited from earlier work
[8] = system: E. coli; conditions: agar diffusion; cited from earlier work
[9] = system: Bacillus megaterium; conditions: agar diffusion; cited from earlier work
[10] = system: transcriptional accessory protein; conditions: cited from earlier work
[11] = system: L. crescens; conditions: cited from earlier work

C/C=C/C(=O)n1nnc2ccccc21
melting point: 91 to 93 °C

C/C=C/c1cc2c(c(=O)o1)C(=O)CC(C)O2 (racemic) [Compound 2, (E)-2-methyl-7-(prop-1-en-1-yl)-2,3-dihydropyrano[4,3-b]pyran-4,5-dione]
inhibition of L. crescens (in words) [1]: notable linear relationships between compound dose and antibacterial response; also recorded: most potent inhibitor of L. crescens tested; also recorded: potently inhibit; also recorded: potent inhibitor
inhibition of L. crescens (in words) ([1]; dose 1.06 μmol and higher): complete inhibition
inhibition of L. crescens (in words) ([1]; listed as deoxyradicinin): nanomolar inhibitor
diameter of inhibition ([1]; lowest tested dose of 0.053 μmol): 4.0 cm
inhibition of Xf (in words) [2]: consistent, somewhat linear relationship between compound dose and antibacterial response; also recorded: more potent than 1; also recorded: potent inhibitor
inhibition of Xf (in words) ([2]; listed as deoxyradicinin): low micromolar inhibitor

CCCc1cc2c(c(=O)o1)C(=O)CC(C)O2 (racemic) [Compound 3, 2-methyl-7-propyl-2,3-dihydropyrano[4,3-b]pyran-4,5-dione]
inhibition of L. crescens (in words) [1]: notable linear relationships between compound dose and antibacterial response
dose at which activity is shown [2]: greater than 0.53 μmol
diameter of inhibition [2]: 3.4 cm

C/C=C/c1cc2c(c(=O)o1)C(=O)C[C@H](C)O2 (single isomer, unassigned) [(−)-2, (−)-deoxyradicinin]
inhibition of L. crescens (in words) [1]: potently inhibit

C/C=C/c1cc2c(c(=O)o1)C(=O)CC(C)O2 (single isomer, unassigned; (+)) [(+)-2, (+)-deoxyradicinin]
inhibition of L. crescens (in words) [1]: potently inhibit

C/C=C/c1cc2c(c(=O)o1)C(=O)[C@@H](O)[C@H](C)O2 [Compound 1, radicinin]
inhibition of L. crescens (in words) [1]: notable linear relationships between compound dose and antibacterial response
inhibition of Xf (in words) [2]: consistent, somewhat linear relationship between compound dose and antibacterial response
diameter of inhibition [2]: 10 cm
inhibition of Xf in vitro (in words) [3]: inhibitor of Xf in vitro

C/C=C/C(=O)c1c(O)cc(/C=C/C)oc1=O [Compound 4, 3-((E)-but-2-enoyl)-4-hydroxy-6-((E)-prop-1-en-1-yl)-2H-pyran-2-one]
inhibition of L. crescens (in words) [1]: notable linear relationships between compound dose and antibacterial response

C/C=C/c1cc(O)cc(=O)o1 [Compound 5, (E)-4-hydroxy-6-(prop-1-en-1-yl)-2H-pyran-2-one]
diameter of inhibition ([1]; highest dose): 2.6 cm
diameter of inhibition ([1]; lower doses): 0.2 cm
inhibition of Xf (in words) [2]: inactive
melting point: 183 to 185 °C

O=C1CCC(c2ccc(O)c3c2C(=O)C2OC2C3O)c2cccc(O)c21 (stereo not shown) [Compound 21, cladosporol A]
antibacterial activity (in words) [4]: modest antibacterial activity
antibacterial activity (in words) [5]: modest antibacterial activity
antibacterial activity (in words) [6]: modest antibacterial activity
antibacterial activity (in words) [7]: modest antibacterial activity

CC(CCCCCCCCCCCCCCO[C@@H]1O[C@H](CO)[C@@H](O)[C@H](O)[C@@H]1O)C(O)=C1C(=O)C(C)N(C)C1=O (stereo partly shown) [Compound 24, epicoccamide A]
antibacterial activity (in words) [4]: modest antibacterial activity
antibiotic activity (in words) [8]: no detectable antibiotic activity
antibacterial activity (in words) [5]: modest antibacterial activity
antibiotic activity (in words) [9]: no detectable antibiotic activity
antibacterial activity (in words) [6]: modest antibacterial activity
antibacterial activity (in words) [7]: modest antibacterial activity

Cc1c(Cl)cccc1Nc1ccccc1C(=O)O [Tolfenamic acid]
inhibition of transcriptional accessory protein (in words) [10]: inhibits a transcriptional accessory protein

CO/N=C(\C(=O)N[C@@H]1C(=O)N2C(C(=O)O)=C(COC(C)=O)CS[C@H]12)c1csc(N)n1 [cefotaxime]
concentration providing nearly complete inhibition of L. crescens [11]: 0.7 µM

CC1(C)S[C@@H]2[C@H](NC(=O)COc3ccccc3)C(=O)N2[C@H]1C(=O)O [penicillin V]
concentration providing nearly complete inhibition of L. crescens [11]: 0.1 µM
